Reference: patent publication US10973896B2, “Treatment or prevention of melanoma using photochemical internalization of a melanoma antigen” (PCI Biotech AS, priority 2014, dated 2021)

Key:
Format in all cases: in vivo, C57BL/6 mice
[1] = tested on: spleen cells restimulated by SIINFEKL peptide; experiment: Poly(IC) and CpG experiment, IFN-gamma ELISA of restimulated spleen cells (Example 4); conditions: day 14 spleen cells; FIG. 19B
Method: For ELISA analysis 2×10^5 splenocytes were re-stimulated in 96-well plates with 0.005 μg/ml of the SIINFEKL peptide. After 72 hours, supernatants were collected and analysed for IFN-γ by ELISA (eBioscience—performed according to the manufacturer's instructions).
The experiment was performed as described under Materials and Methods, and mouse blood samples from day 7 after vaccination were analysed by flow cytometry as described. Spleen cells from day 14 were restimulated by SIINFEKL peptide and analysed by Interferon-gamma ELISA as described. All mice received OT-1 cells as described. • The following experimental groups were included: • 1. Untreated: Mice received OT-1 cells, but were not vaccinated or illuminated. • 2. OVA: Mice were vaccinated with 10 μg of OVA. They were not illuminated. • 3. OVA 100 μg: Mice were vaccinated with a mixture of 100 μg OVA. They were not illuminated. • 4. OVA 10 μg PCI: Mice were vaccinated with a mixture of 10 μg OVA+150 μg TPCS2a. Illuminated as described. • 5. CpG OVA: Mice were vaccinated with a mixture of 10 μg OVA+50 μg ODN2935 CpG oligonucleotide. They were not illuminated. • 6. CpG OVA/PCI: Mice were vaccinated with a mixture of 10 μg OVA+50 μg ODN2935 CpG oligonucleotide+150 μg TPCS2a. Illuminated as described. • 7. Poly(IC) OVA: Mice were vaccinated with a mixture of 10 μg OVA+50 μg Poly(IC). They were not illuminated. • 8. […]

[2] = tested on: OVA-expressing B16-melanoma tumours; experiment: Histological analysis of tumour and tumour infiltrates (Example 1); conditions: immune histochemistry; FIG. 3A
Method: C57BLJ6 mice received 500,000 OVA-expressing B16-melanoma cells intradermally as described above. Six days later, the mice were vaccinated with 10 μg OVA ±100 μg TPCS2a as described above. On day 7, the mice were treated with 4.86 J/cm2 light. On day 15, the mice were euthanized and the tumours excised and cut in two pieces, one snap frozen in liquid nitrogen and one fixed in formalin (2 days) and 60% ethanol before embedded in paraffin. The frozen tissues were sectioned and stained with anti-mouse CD8, CD4, and caspase-3 antibodies for immune histochemistry. Paraffin sections were stained with haematoxylin and eosin.

[3] = tested on: SIINFEKL-specific CD8 T cells; experiment: Intradermal PCI immunisation, antigen-specific CD8 T cells in blood by pentamer flow cytometry (Example 1); conditions: 10 μg OVA with or without 100 μg TPCS2a i.d., skin illuminated 18 hours later; FIG. 1A
Method: C57BL/6 mice were immunised at 6-10 weeks of age. One day prior to immunisation, 10,000 OT-I spleen and lymph node cells were administered by intravenous injection into the recipient C57BL/6 mice (see Example 2). The next day, the fur was shaven off the abdominal region and 100 μl of the vaccine preparations were injected intradermally. The doses of OVA and TPCS2a were 10 μg and 100 μg, respectively. After 18 hours, the anaesthetised mice were placed on the light source for six minutes illumination (4.86 J/cm2) for activation of TPCS2a.
The frequency of antigen-specific CD8 T cells was monitored in blood and spleen by flow cytometry using H-2K^b/SIINFEKL Pro5 pentamer (Proimmune, Oxford, UK). Cell-surface expression of CD4, CD8, and CD44 and intracellular production of IFN-γ was analysed by flow cytometry after Fc-receptor blocking with anti-CD16/32. The intracellular staining was after overnight incubation at 37° C. with 0.1 μg SIINFEKL. Brefeldin A (2.5 μg/ml) was added during the last 4 hours. The cells were fixed with 4% formaldehyde for 10 minutes, permeabilised in 0.1% NP40 for 3 minutes, and stained with anti-IFN-γ for 35 minutes. […] Acquisition was performed on FACSCanto (BD Biosciences, San Jose, USA) and data analysed with FlowJo 8.5.2 (Tree Star, Inc., Ashland, Oreg.). […] Supernatants were collected after 24-72 hours and analysed using cytokine ELISA kits (eBioscience).

Substance: OVA: Chicken ovalbumin protein, model antigen expressed by the transfected B16 melanoma cells
- IFN-gamma ELISA after restimulation of spleen cells with SIINFEKL peptide [1]: virtually no effect
- infiltration of CD8 T cells into the intradermal tumour [2]: no benefit compared to no treatment
- frequency of pentamer (H2K^d-SIINFEKL)-binding CD8 T cells in blood [3]: No or little so-called cross priming
